Experimental data taken from ChEMBL document CHEMBL4152259, “Benzoxazinone-containing 3,5-dimethylisoxazole derivatives as BET bromodomain inhibitors for treatment of castration-resistant prostate cancer” (Eur J Med Chem, 2018).
The source made the active and inactive calls. No cut-off for these calls is given here.

Legend:
[1] = system: Mus musculus; test: Toxicity in C.B-17/IcrHsd-Prkdc scid mouse xenografted with human 22Rv1 cells assessed as body weight loss at 50 mg/kg, ip administered 5 times per week measured during compound dosing; type: organism-based; conditions: in vivo
[2] = Tmax in Sprague-Dawley rat at 2 mg/kg, iv administered as single dose; type: ADME, organism-based; conditions: in vivo
[3] = species on record: Homo sapiens; test: Inhibition of BET bromodomain in human LNCAP cells assessed as reduction in ERG mRNA level at 1 uM after 48 hrs by qPCR assay; type: cell-based
[4] = species on record: Homo sapiens; test: Inhibition of BET bromodomain in human LNCAP cells assessed as reduction in TMPRSS2 mRNA level at 1 uM after 48 hrs by qPCR assay; type: cell-based
[5] = Clearance in Sprague-Dawley rat at 2 mg/kg, iv administered as single dose; type: ADME, organism-based; conditions: in vivo
[6] = Oral bioavailability in Sprague-Dawley rat at 10 mg/kg administered as single dose; type: ADME, organism-based; conditions: in vivo
[7] = system: CWR22R; test: Anti-invasive activity against human 22Rv1 cells at 1 uM after 48 hrs by crystal violet staining based matrigel-mediated Boyden chamber assay relative to control; type: functional
[8] = species on record: Homo sapiens; test: Inhibition of BET bromodomain in human LNCAP cells harboring pPSA-Luc/pRenialla-Luc assessed as reduction in PSA mRNA level after 24 hrs by luciferase reporter gene assay; type: cell-based
[9] = species on record: Homo sapiens; test: Inhibition of BET bromodomain in human LNCAP cells assessed as reduction in full length AR mRNA level at 1 uM after 48 hrs by qPCR assay; type: cell-based
[10] = species on record: Homo sapiens; test: Inhibition of BET bromodomain in human 22Rv1 cells assessed as reduction in TMPRSS2 mRNA level at 1 uM after 48 hrs by qPCR assay; type: cell-based
[11] = system: VCaP; test: Inhibition of BET bromodomain in human VCaP cells assessed as reduction in ERG mRNA level at 1 uM after 48 hrs by qPCR assay; type: cell-based
[12] = species on record: Homo sapiens; test: Inhibition of BET bromodomain in human 22Rv1 cells assessed as reduction in c-Myc mRNA level at 1 uM after 48 hrs by qPCR assay; type: cell-based
[13] = system: CWR22R; test: Antimigratory activity against human 22Rv1 cells at 1 uM after 48 hrs by transwell assay relative to control; type: functional
[14] = species on record: Homo sapiens; test: Inhibition of BET bromodomain in human 22Rv1 cells assessed as AR-varient protein level at 4 uM after 48 hrs by Western blot assay (reference value: 1); type: cell-based
[15] = species on record: Homo sapiens; test: Selectivity ratio of IC50 for inhibition of His6-tagged human CREBBP (R1081 to G1197 residues) expressed in Escherichia coli BL21(DE3) by AlphaScreen assay to IC50 for inhibition of His6-tagged human BRD4 bromodomain-1 (N44 to E168 residues) expressed in Escherichia coli BL21(DE3) by AlphaScreen assay
[16] = system: VCaP; test: Inhibition of BET bromodomain in human VCaP cells assessed as reduction in TMPRSS2 mRNA level at 1 uM after 48 hrs by qPCR assay; type: cell-based
[17] = species on record: Homo sapiens; test: Inhibition of BET bromodomain in human 22Rv1 cells assessed as full length AR protein level at 1 uM after 48 hrs by Western blot assay (reference value: 1); type: cell-based
[18] = species on record: Homo sapiens; test: Inhibition of BET bromodomain in human LNCAP cells assessed as reduction in PSA mRNA level at 1 uM after 48 hrs by qPCR assay; type: cell-based
[19] = Tmax in Sprague-Dawley rat at 10 mg/kg, po administered as single dose; type: ADME, organism-based; conditions: in vivo
[20] = system: VCaP; test: Inhibition of BET bromodomain in human VCaP cells assessed as reduction in c-Myc mRNA level at 1 uM after 48 hrs by qPCR assay; type: cell-based
[21] = system: VCaP; test: Inhibition of BET bromodomain in human VCaP cells assessed as reduction in full length AR mRNA level at 1 uM after 48 hrs by qPCR assay; type: cell-based
[22] = AUC (0 to infinity) in Sprague-Dawley rat at 10 mg/kg, po administered as single dose; type: ADME, organism-based; parameters: dose 10 mg/kg, route oral, time infinity; conditions: in vivo
[23] = system: CWR22R; test: Antitumor activity against human 22Rv1 cells xenografted in C.B-17/IcrHsd-Prkdc scid mouse assessed as tumor growth inhibition at 50 mg/kg, ip administered 5 times per week relative to control; type: functional; conditions: 22Rv1, ip, read-out: TGI
[24] = system: CWR22R; test: Inhibition of colony formation in human 22Rv1 cells after 14 days by crystal violet staining based assay; type: functional, cell-based

Cc1noc(C)c1-c1ccc2c(c1)O[C@H](CC1CC1)C(=O)N2
Activity [1]: Non-Toxic
Tmax [2]: 4.8 min
inhibition [3]: Active
inhibition [4]: Active
clearance [5]: 33.9 mL/min/kg
bioavailability [6]: 29.3%
Activity [7]: 57%
inhibition [8]: Dose-dependent effect
inhibition [9]: Active
inhibition [10]: Active
inhibition [11]: Active
inhibition [12]: Active
Activity [13]: 27%
fold change (FC) [14]: 0.45
Ratio IC50 [15]: 25
inhibition [16]: Active
fold change (FC) [17]: 0.43
inhibition [18]: Active
Tmax [19]: 30 min
inhibition [20]: Active
inhibition [21]: Active
AUC(0-inf) [22]: 1460 ng·h/mL
inhibition in vivo at 50 mg/kg [23]: 70%
inhibition [24]: Dose-dependent effect
